“And” between values parts separate entries of the source, which are not always exact repeats. Equal entries are not always repeated. Inconclusive results and toxic doses are left out. Cut-off read from the data, not from the text of the source: active = T/C of 150% or more; inactive = T/C below 125%.
Test system: L1210 leukemia ip in BDF1 mice, survival T/C
Assay: NCI In Vivo Anticancer Drug Screen. Data for tumor model L1210 Leukemia (intraperitoneal) in B6D2F1 (BDF1) mice
Conditions: endpoint: mean survival time, higher = longer survival
Method in brief: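 Each compound was tested against a transplantable tumor grown in mice. The endpoint was survival, with treated animals benchmarked against vehicle controls as a simple ratio.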

[1] = dose: 12.0 mg/kg/injection, schedule: Q04DX003 (ip), vehicle: saline
[2] = dose: 50.0 mg/kg/injection, schedule: Q04DX003 (ip), vehicle: saline
[3] = dose: 100.0 mg/kg/injection, schedule: Q04DX003 (ip), vehicle: saline
[4] = dose: 200.0 mg/kg/injection, schedule: Q04DX003 (ip), vehicle: saline
[5] = dose: 100.0 mg/kg/injection, schedule: Q01DX009 (ip), vehicle: Klucel (hydroxypropylcellulose) (HPC)
[6] = dose: 200.0 mg/kg/injection, schedule: Q01DX009 (ip), vehicle: Klucel (hydroxypropylcellulose) (HPC)
[7] = dose: 25.0 mg/kg/injection, schedule: Q01DX009 (ip), vehicle: saline with Tween-80
[8] = dose: 100.0 mg/kg/injection, schedule: Q04DX003 (ip), vehicle: saline with Tween-80
[9] = dose: 200.0 mg/kg/injection, schedule: Q04DX003 (ip), vehicle: saline with Tween-80
[10] = dose: 100.0 mg/kg/injection, schedule: Q01DX001 (ip), vehicle: saline with Tween-80
[11] = dose: 200.0 mg/kg/injection, schedule: Q01DX001 (ip), vehicle: saline with Tween-80
[12] = dose: 400.0 mg/kg/injection, schedule: Q01DX001 (ip), vehicle: saline with Tween-80
[13] = dose: 50.0 mg/kg/injection, schedule: Q01DX009 (ip), vehicle: saline
[14] = dose: 100.0 mg/kg/injection, schedule: Q01DX009 (ip), vehicle: saline with Tween-80
[15] = dose: 200.0 mg/kg/injection, schedule: Q01DX009 (ip), vehicle: saline with Tween-80
[16] = dose: 400.0 mg/kg/injection, schedule: Q04DX003 (ip), vehicle: saline

Measured: T/C

NC(=O)C(c1ccccc1)C(O)c1ccccc1 (stereo not given)
inactive: dose: 50.0 mg/kg/injection, schedule: Q01DX001 (ip), vehicle: saline 101 % of control | dose: 100.0 mg/kg/injection, schedule: Q01DX001 (ip), vehicle: saline 95 % of control | dose: 200.0 mg/kg/injection, schedule: Q01DX001 (ip), vehicle: saline 97 % of control | dose: 400.0 mg/kg/injection, schedule: Q01DX001 (ip), vehicle: saline 101 % of control

COC(OC)c1[nH]c(=O)[nH]c(=O)c1F.[Hg]
inactive: dose: 3.0 mg/kg/injection, schedule: Q01DX009 (ip), vehicle: saline 97 % of control | dose: 6.0 mg/kg/injection, schedule: Q01DX009 (ip), vehicle: saline 97 % of control | [1] 98 % of control

Nc1ccc(CCc2ccccc2)c(C(=O)O)c1
inactive: [2] 104 % of control | [3] 110 % of control | [4] 96 % of control

Clc1ccc(/C=C/c2ccc3ccccc3n2)cc1
inactive: dose: 75.0 mg/kg/injection, schedule: Q01DX Z (ip), vehicle: carboxymethylcellulose (CMC) 96 % of control | dose: 113.0 mg/kg/injection, schedule: Q01DX Z (ip), vehicle: carboxymethylcellulose (CMC) 90 % of control | dose: 170.0 mg/kg/injection, schedule: Q01DX Z (ip), vehicle: carboxymethylcellulose (CMC) 88 % of control | dose: 255.0 mg/kg/injection, schedule: Q01DX Z (ip), vehicle: carboxymethylcellulose (CMC) 88 % of control

CC(=O)n1cc(/C=C2\N=C(c3cccc(Cl)c3)OC2=O)c2ccccc21
inactive: [5] 112 % of control | [6] 104 % of control | dose: 400.0 mg/kg/injection, schedule: Q01DX009 (ip), vehicle: Klucel (hydroxypropylcellulose) (HPC) 101 % of control

c1ccc(-c2ccno2)cc1
inactive: dose: 6.25 mg/kg/injection, schedule: Q01DX009 (ip), vehicle: saline with Tween-80 98 % of control | dose: 12.5 mg/kg/injection, schedule: Q01DX009 (ip), vehicle: saline with Tween-80 106 % of control | [7] 107 % of control | dose: 75.0 mg/kg/injection, schedule: Q01DX009 (ip), vehicle: saline with Tween-80 90 % of control

OCCN(Cc1ccccc1)Cc1ccccc1
inactive: [8] 101 % of control | [9] 95 % of control

C/C(CCCC(C)(C)C(=O)O)=N/Nc1ccc([N+](=O)[O-])cc1[N+](=O)[O-]
inactive: dose: 75.0 mg/kg/injection, schedule: Q01DX001 (ip), vehicle: other 93 % of control

CCCCCCCCCCC/C(C)=N/Nc1ccc([N+](=O)[O-])cc1[N+](=O)[O-]
inactive: [10] 94 % of control | [11] 92 % of control | [12] 92 % of control

CCCCCCCCCC(=O)NC(=S)Nc1ccc(Br)cc1
inactive: dose: 100.0 mg/kg/injection, schedule: Q01DX001 (ip), vehicle: Klucel (hydroxypropylcellulose) (HPC) 93 % of control | [5] 93 % of control and 98 % of control | dose: 100.0 mg/kg/injection, schedule: Q04DX002 (ip), vehicle: Klucel (hydroxypropylcellulose) (HPC) 98 % of control and 91 % of control | dose: 100.0 mg/kg/injection, schedule: Q04DX003 (ip), vehicle: Klucel (hydroxypropylcellulose) (HPC) 92 % of control | dose: 200.0 mg/kg/injection, schedule: Q01DX001 (ip), vehicle: Klucel (hydroxypropylcellulose) (HPC) 91 % of control | [6] 91 % of control | dose: 200.0 mg/kg/injection, schedule: Q04DX002 (ip), vehicle: Klucel (hydroxypropylcellulose) (HPC) 96 % of control and 88 % of control | dose: 200.0 mg/kg/injection, schedule: Q04DX003 (ip), vehicle: Klucel (hydroxypropylcellulose) (HPC) 94 % of control | dose: 400.0 mg/kg/injection, schedule: Q01DX001 (ip), vehicle: Klucel (hydroxypropylcellulose) (HPC) 94 % of control | dose: 400.0 mg/kg/injection, schedule: Q04DX002 (ip), vehicle: Klucel (hydroxypropylcellulose) (HPC) 96 % of control and 88 % of control | dose: 400.0 mg/kg/injection, schedule: Q04DX003 (ip), vehicle: Klucel (hydroxypropylcellulose) (HPC) 102 % of control

CCCCCCCCCC(C)CCCC (stereo not given)
inactive: [10] 86 % of control | [11] 96 % of control

Nc1ncnc2c1ncn2CCCCCl
inactive: [1] 93 % of control | dose: 12.5 mg/kg/injection, schedule: Q01DX009 (ip), vehicle: saline 119 % of control | dose: 25.0 mg/kg/injection, schedule: Q01DX009 (ip), vehicle: saline 97 % of control | dose: 25.0 mg/kg/injection, schedule: Q04DX003 (ip), vehicle: saline 107 % of control | [13] 106 % of control | [2] 93 % of control

COS(=O)(=O)c1ccc(Cl)c([N+](=O)[O-])c1
inactive: dose: 0.38 mg/kg/injection, schedule: Q01DX009 (ip), vehicle: saline 97 % of control | dose: 0.75 mg/kg/injection, schedule: Q01DX009 (ip), vehicle: saline 102 % of control | dose: 0.75 mg/kg/injection, schedule: Q04DX003 (ip), vehicle: saline with Tween-80 101 % of control | dose: 1.5 mg/kg/injection, schedule: Q01DX009 (ip), vehicle: saline 97 % of control | dose: 1.5 mg/kg/injection, schedule: Q04DX003 (ip), vehicle: saline with Tween-80 90 % of control

CSc1ccc(OC(=O)Nc2cc(Cl)ccc2C)cc1
inactive: [10] 98 % of control | [14] 95 % of control and 98 % of control | dose: 100.0 mg/kg/injection, schedule: Q04DX002 (ip), vehicle: saline with Tween-80 97 % of control | [8] 96 % of control | [11] 96 % of control | [15] 96 % of control and 103 % of control | dose: 200.0 mg/kg/injection, schedule: Q04DX002 (ip), vehicle: saline with Tween-80 94 % of control and 101 % of control | [9] 98 % of control | [12] 93 % of control | dose: 400.0 mg/kg/injection, schedule: Q04DX002 (ip), vehicle: saline with Tween-80 94 % of control and 105 % of control

O=C(O)c1nc2nc(Cl)c(Cl)nc2[nH]1
inactive: [13] 98 % of control | dose: 100.0 mg/kg/injection, schedule: Q01DX009 (ip), vehicle: saline 101 % of control and 90 % of control | [3] 100 % of control | dose: 200.0 mg/kg/injection, schedule: Q01DX009 (ip), vehicle: saline 93 % of control and 96 % of control | [4] 103 % of control | dose: 300.0 mg/kg/injection, schedule: Q01DX009 (ip), vehicle: saline 102 % of control | dose: 400.0 mg/kg/injection, schedule: Q01DX009 (ip), vehicle: saline 91 % of control

O=c1[nH]cnc2c(Cl)c(C(Cl)(Cl)Cl)nn12 (tested in a mixture with another compound)
inactive: [14] 97 % of control | [8] 104 % of control | [15] 92 % of control | [9] 98 % of control | dose: 400.0 mg/kg/injection, schedule: Q01DX009 (ip), vehicle: saline with Tween-80 97 % of control | dose: 400.0 mg/kg/injection, schedule: Q04DX003 (ip), vehicle: saline with Tween-80 97 % of control

OCC1COc2ccccc2O1 (stereo not given)
inactive: [3] 101 % of control | [4] 106 % of control | [16] 103 % of control

CCOc1ccc(Br)cc1/C=C(\C#N)c1ccc([N+](=O)[O-])cc1
inactive: [7] 92 % of control

C=C(CCCCCC/C=C\CCCCCCCC)C(=O)O
inactive: dose: 100.0 mg/kg/injection, schedule: Q04DX002 (sc), vehicle: olive oil, sesame oil, peanut oil 103 % of control | dose: 200.0 mg/kg/injection, schedule: Q04DX002 (sc), vehicle: olive oil, sesame oil, peanut oil 103 % of control | dose: 400.0 mg/kg/injection, schedule: Q04DX002 (sc), vehicle: olive oil, sesame oil, peanut oil 103 % of control

COC(=N)c1ccc(O)c(C)c1
inactive: [3] 99 % of control | [4] 94 % of control | [16] 88 % of control

CC(=O)CC(=O)Nc1cccc(Cl)c1
inactive: dose: 15.0 mg/kg/injection, schedule: Q01DX001 (ip), vehicle: carboxymethylcellulose (CMC) 108 % of control | dose: 30.0 mg/kg/injection, schedule: Q01DX001 (ip), vehicle: carboxymethylcellulose (CMC) 108 % of control

O=C1C=C(O)c2[nH]c(=O)ccc2C1=O
inactive: dose: 5.0 mg/kg/injection, schedule: Q01DX001 (ip), vehicle: saline 97 % of control | dose: 10.0 mg/kg/injection, schedule: Q01DX001 (ip), vehicle: saline 101 % of control | dose: 20.0 mg/kg/injection, schedule: Q01DX001 (ip), vehicle: saline 97 % of control | dose: 40.0 mg/kg/injection, schedule: Q01DX001 (ip), vehicle: saline 97 % of control

— PubChem BioAssay AID248 (DTP/NCI, 2004)
